Source: ChEMBL document CHEMBL1909046, “DrugMatrix in vitro pharmacology data”

Assays:
[1] = molecular target: Beta-2 adrenergic receptor (Homo sapiens, UniProt P07550); experiment: DRUGMATRIX: Adrenergic beta2 radioligand binding (ligand: [3H] CGP-12177); assay type: cell membranes, CHO, Membrane; details: cho; Not Active = under 50% inhibition at 10 µM
[2] = DRUGMATRIX: ATPase, Na+/K+ enzyme inhibition (substrate: ATP); assay type: tissue-based, Sus scrofa, Heart; details: Not Active = under 50% inhibition at 10 µM
Calcitonin receptor = molecular target: T1, Calcitonin receptor (Homo sapiens, UniProt P30988); assay type: cell membranes, Membrane; details: t47d; further: in other assays of this panel Not Active means under 50% inhibition at 10 µM
T1 sequence (P30988 whole entry): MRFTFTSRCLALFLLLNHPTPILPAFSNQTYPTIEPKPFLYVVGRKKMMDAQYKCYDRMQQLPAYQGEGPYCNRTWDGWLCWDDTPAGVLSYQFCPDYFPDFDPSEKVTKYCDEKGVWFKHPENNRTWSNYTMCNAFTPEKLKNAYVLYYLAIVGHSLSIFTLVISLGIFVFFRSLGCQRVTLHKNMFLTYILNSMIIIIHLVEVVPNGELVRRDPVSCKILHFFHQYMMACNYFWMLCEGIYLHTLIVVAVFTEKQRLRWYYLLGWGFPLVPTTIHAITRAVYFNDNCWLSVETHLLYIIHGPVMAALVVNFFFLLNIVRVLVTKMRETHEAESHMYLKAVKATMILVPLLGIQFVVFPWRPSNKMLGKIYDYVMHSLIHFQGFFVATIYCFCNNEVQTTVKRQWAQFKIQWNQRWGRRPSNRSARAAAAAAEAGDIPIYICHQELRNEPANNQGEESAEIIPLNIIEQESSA

[3] = DRUGMATRIX: Calcium Channel Type L, Dihydropyridine radioligand binding (ligand: [3H] Nitrendipine); assay type: cell membranes, Rattus norvegicus, Wistar, Cerebral cortex, Membrane; details: Not Active = under 50% inhibition at 10 µM
[4] = DRUGMATRIX: GABAA, Muscimol, Central radioligand binding (ligand: [3H] Muscimol); assay type: cell membranes, Rattus norvegicus, Wistar, Brain, Membrane; details: Not Active = under 50% inhibition at 10 µM
[5] = DRUGMATRIX: Phorbol Ester radioligand binding (ligand: [3H] PDBu); assay type: cell membranes, Mus musculus, ICR, Brain, Membrane; details: Not Active = under 50% inhibition at 10 µM
[6] = molecular target: Platelet-activating factor receptor (Homo sapiens, UniProt P25105); assay type: tissue-based; further: in other assays of this panel Not Active means under 50% inhibition at 10 µM
Interstitial collagenase = molecular target: T2, Interstitial collagenase (Homo sapiens, UniProt P03956); experiment: biochemical; assay type: tissue-based, Rheumatoid synovial fibroblasts;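 further: MMP-1 enzyme inhibition assay using a peptide substrate; in other assays of this panel Not Active means under 50% inhibition at 10 µM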
T2 sequence (P03956 whole entry): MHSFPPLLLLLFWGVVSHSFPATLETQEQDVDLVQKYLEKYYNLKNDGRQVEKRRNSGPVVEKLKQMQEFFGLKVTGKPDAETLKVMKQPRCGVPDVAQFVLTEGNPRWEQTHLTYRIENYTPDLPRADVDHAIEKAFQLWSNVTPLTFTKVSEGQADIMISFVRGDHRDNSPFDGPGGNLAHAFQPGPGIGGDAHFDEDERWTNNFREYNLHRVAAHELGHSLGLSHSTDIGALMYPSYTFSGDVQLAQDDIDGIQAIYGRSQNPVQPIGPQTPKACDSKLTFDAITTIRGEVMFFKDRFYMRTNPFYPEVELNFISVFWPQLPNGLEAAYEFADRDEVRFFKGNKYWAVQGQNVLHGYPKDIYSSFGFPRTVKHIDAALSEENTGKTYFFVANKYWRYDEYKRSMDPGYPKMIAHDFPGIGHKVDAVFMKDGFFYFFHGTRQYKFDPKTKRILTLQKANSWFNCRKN

[7] = molecular target: T3, Receptor-type tyrosine-protein phosphatase C (Homo sapiens, UniProt P08575); parameters: species or system Escherichia coli;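 further: inhibition of CD45 enzyme activity measured using DiFMUP as substrate; in other assays of this panel Not Active means under 50% inhibition at 10 µM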
T3 sequence (P08575 whole entry): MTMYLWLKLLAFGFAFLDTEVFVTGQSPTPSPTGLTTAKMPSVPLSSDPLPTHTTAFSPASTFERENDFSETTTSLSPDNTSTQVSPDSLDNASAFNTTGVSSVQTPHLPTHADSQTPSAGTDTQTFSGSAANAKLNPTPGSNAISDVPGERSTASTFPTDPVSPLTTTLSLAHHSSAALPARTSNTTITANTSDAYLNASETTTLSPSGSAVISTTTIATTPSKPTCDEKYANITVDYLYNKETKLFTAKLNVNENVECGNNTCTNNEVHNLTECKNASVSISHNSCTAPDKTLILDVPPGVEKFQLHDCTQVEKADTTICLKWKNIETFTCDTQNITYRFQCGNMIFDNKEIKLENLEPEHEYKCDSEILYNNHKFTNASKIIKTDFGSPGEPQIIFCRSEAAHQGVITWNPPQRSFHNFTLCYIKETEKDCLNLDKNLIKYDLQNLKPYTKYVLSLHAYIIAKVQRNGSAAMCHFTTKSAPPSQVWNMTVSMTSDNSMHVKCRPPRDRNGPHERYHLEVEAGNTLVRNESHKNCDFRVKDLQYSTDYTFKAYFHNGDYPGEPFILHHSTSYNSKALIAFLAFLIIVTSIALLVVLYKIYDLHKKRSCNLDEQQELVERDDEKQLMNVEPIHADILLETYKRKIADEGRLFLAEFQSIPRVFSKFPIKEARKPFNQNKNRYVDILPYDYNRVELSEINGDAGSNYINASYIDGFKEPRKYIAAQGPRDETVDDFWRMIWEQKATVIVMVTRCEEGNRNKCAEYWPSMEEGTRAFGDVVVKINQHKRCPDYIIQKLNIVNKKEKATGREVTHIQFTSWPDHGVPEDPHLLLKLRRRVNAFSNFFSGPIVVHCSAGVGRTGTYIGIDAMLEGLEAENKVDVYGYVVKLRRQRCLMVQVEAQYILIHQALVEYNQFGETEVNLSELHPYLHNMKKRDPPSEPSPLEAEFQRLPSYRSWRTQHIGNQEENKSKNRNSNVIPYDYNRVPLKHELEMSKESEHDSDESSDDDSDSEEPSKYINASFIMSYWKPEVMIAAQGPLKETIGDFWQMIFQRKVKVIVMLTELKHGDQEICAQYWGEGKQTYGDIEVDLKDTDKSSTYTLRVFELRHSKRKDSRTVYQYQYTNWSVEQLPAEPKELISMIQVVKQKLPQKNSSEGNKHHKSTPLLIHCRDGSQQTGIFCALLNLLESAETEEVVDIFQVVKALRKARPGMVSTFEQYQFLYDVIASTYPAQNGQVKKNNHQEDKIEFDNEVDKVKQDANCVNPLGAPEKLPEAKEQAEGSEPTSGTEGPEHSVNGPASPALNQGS

Sequence of Platelet-activating factor receptor (P25105 whole entry): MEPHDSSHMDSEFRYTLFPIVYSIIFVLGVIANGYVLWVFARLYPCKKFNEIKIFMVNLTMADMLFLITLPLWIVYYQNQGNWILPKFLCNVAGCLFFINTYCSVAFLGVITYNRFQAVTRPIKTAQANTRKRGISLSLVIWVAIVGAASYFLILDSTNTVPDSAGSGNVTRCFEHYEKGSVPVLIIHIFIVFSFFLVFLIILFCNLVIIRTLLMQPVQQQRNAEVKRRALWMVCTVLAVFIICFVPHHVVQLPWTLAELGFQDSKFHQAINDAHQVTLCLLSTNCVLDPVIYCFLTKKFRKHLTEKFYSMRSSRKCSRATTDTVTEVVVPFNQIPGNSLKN

Compound	IC50 [1]	IC50 [2]	Ki [2]	IC50 (Calcitonin receptor)	IC50 ([3]; read-out: IC50) [µM]	Ki ([3]; read-out: Ki) [µM]	IC50 [4]	Ki [4]	IC50 [5]	Ki [5]	IC50 [6]	IC50 (Interstitial collagenase)	IC50 [7]	IC50 [3]	Ki [3]	Ki [1]	Ki (Calcitonin receptor)	Ki [6]	Ki (Interstitial collagenase)	Ki [7]
Cc1c(C)c2c(c(C)c1O)CCC(C)(CN1CCN(c3cc(N4CCCC4)nc(N4CCCC4)n3)CC1)O2 (configuration not stated)	Not Active	Not Active	Not Active	Not Active	1.66	1.07	Not Active	Not Active	Not Active	Not Active	Not Active	Not Active	Not Active							
COc1ccc(CCN(C)CCCC(C#N)(c2ccc(OC)c(OC)c2)C(C)C)cc1OC (configuration not stated)	Not Active	Not Active	Not Active	Not Active			Not Active	Not Active	Not Active	Not Active	Not Active	Not Active	Not Active	Not Active	Not Active					
CC(C)Cc1ccc([C@@H](C)C(=O)O)cc1 [(R)-IBUPROPHEN]	Not Active	Not Active	Not Active	Not Active			Not Active	Not Active	Not Active	Not Active	Not Active	Not Active	Not Active	Not Active	Not Active					
CN(C)CCOC(c1ccccc1)c1ccccc1 [DIPHENHYDRAMINE]	Not Active			Not Active							Not Active	Not Active	Not Active							
Clc1ccc(COC(Cn2ccnc2)c2ccc(Cl)cc2Cl)cc1 (configuration not stated) [ECONAZOLE]	Not Active			Not Active							Not Active	Not Active	Not Active							
CCN(CC)CCOc1ccc(/C(=C(/Cl)c2ccccc2)c2ccccc2)cc1 [ENCLOMIPHENE]	Not Active			Not Active							Not Active	Not Active	Not Active							
Fc1ccc(C(c2ccc(F)cc2)N2CCN(C/C=C/c3ccccc3)CC2)cc1 [FLUNARIZINE]	Not Active			Not Active							Not Active	Not Active	Not Active							
CNCCC(Oc1ccc(C(F)(F)F)cc1)c1ccccc1 (configuration not stated) [FLUOXETINE]	Not Active			Not Active							Not Active	Not Active	Not Active							
Cc1ccc(NC(=O)c2ccc(CN3CCN(C)CC3)cc2)cc1Nc1nccc(-c2cccnc2)n1 [IMATINIB]	Not Active			Not Active							Not Active	Not Active	Not Active							
CC(C)Oc1ccc2c(=O)c(-c3ccccc3)coc2c1 [IPRIFLAVONE]		Not Active	Not Active	Not Active			Not Active	Not Active	Not Active	Not Active	Not Active	Not Active	Not Active	Not Active	Not Active	Not Active				
CC(C)NCC(O)c1ccc(O)c(O)c1 (configuration not stated) [ISOPROTERENOL]		Not Active	Not Active	Not Active			Not Active	Not Active	Not Active	Not Active	Not Active	Not Active	Not Active	Not Active	Not Active					
CNC1(c2ccccc2Cl)CCCCC1=O (configuration not stated) [KETAMINE]	Not Active	Not Active	Not Active	Not Active			Not Active	Not Active	Not Active	Not Active	Not Active	Not Active	Not Active	Not Active	Not Active					
N#Cc1ccc(C(c2ccc(C#N)cc2)n2cncn2)cc1 [LETROZOLE]	Not Active	Not Active	Not Active	Not Active			Not Active	Not Active	Not Active	Not Active	Not Active	Not Active	Not Active	Not Active	Not Active					
CCN1CCC[C@H]1CNC(=O)c1cc(S(N)(=O)=O)ccc1OC [LEVOSULPIRIDE]	Not Active	Not Active	Not Active	Not Active			Not Active	Not Active	Not Active	Not Active	Not Active	Not Active	Not Active	Not Active	Not Active					
CCN(CC)CC(=O)Nc1c(C)cccc1C [LIDOCAINE]	Not Active	Not Active	Not Active	Not Active			Not Active	Not Active	Not Active	Not Active	Not Active	Not Active	Not Active	Not Active	Not Active					
O=C1Nc2ccc(Cl)cc2C(c2ccccc2Cl)=NC1O (configuration not stated) [LORAZEPAM]	Not Active	Not Active	Not Active	Not Active			Not Active	Not Active	Not Active	Not Active	Not Active	Not Active	Not Active	Not Active	Not Active					
CN[C@H]1CC[C@@H](c2ccc(Cl)c(Cl)c2)c2ccccc21 [SERTRALINE]	Not Active			Not Active							Not Active	Not Active	Not Active							
CC(C)NCC(O)c1ccc(NS(C)(=O)=O)cc1 (configuration not stated) [SOTALOL]		Not Active	Not Active	Not Active			Not Active	Not Active	Not Active	Not Active	Not Active	Not Active	Not Active	Not Active	Not Active					
SODIUM ORTHOVANAD	Not Active			Not Active			Not Active	Not Active	Not Active	Not Active	Not Active	Not Active	Not Active	Not Active	Not Active	Not Active	Not Active	Not Active	Not Active	Not Active
